Laboratory results from patent publication EP0519427A2, “N-substituted-3-iodopropiolamide, production and use thereof” (priority 1991, dated 1992).

Assays:
Test in all cases: Fungicide activity for wood fungicide (rating of fungi growth on treated wood)
Type in all cases: cell-based
Conditions in all cases: beech specimens dipped 3 min in fungicide solution, 4 weeks culture; rating 0 (no growth) to 3; mean of 6 specimens
[1] = test system: Aspergillus niger van Tieghem IFO 6341
Procedure: (§1) This test was conducted according to Specification No.2 of Japan Wood Preserving Association, enacted in 1979 and titled "Test methods of fungicide activity for wood fungicide".
(§2) • ① Aspergillus niger van Tieghem IFO 6341 = ATCC 6275 • ② Penicillium funiculosum Thom (formerly : Penicillium luteum Zukal) IFO 6345 = ATCC 9644 • ③ Rhizopus javanicus Takeda (formerly : Rhizopus nigricans Ehrenberg S.N. 32) IFO 6354 • ④ Aureobasidium pullulans (de Bary) Arnaud IFO 6353 = IAM (H. Iizuka, F-24) • ⑤ Gliocladium virens Miller, Gidden & Fosteb IFO 6355 = ATCC 9645 (formerly : Trichoderma viride, T.I.)
(§3) The fungi ① , ② , ③ and ⑤ are classified as fungi imperfecti, and the fungus ④ as blue stain fungus.
(§4) The Culture medium comprised the potato-sap agar culture medium (specified in the Japan Industrial Standard (JIS) Z 2911- 1960) of 50 ml, put in the conical flask of 100 ml, sterilized by steam at 1.4-1.6 kgf/cm² .G (137.2-156.8 KPa) for 30 minutes.
(§5) The fungi to be used were inoculated into the culture medium specified in the previous section and were cultured at 26 ± 2 °C under the relative humidity of 70-80 % for two weeks.
(§6) The potato sap of 50 ml, sterilized, cooled to room temperature and to which dioctyl sodium sulfosuccinate, a wetting agent, was added so as to become 0.005 %, was dropped to the fully breeding fungi layer, and was agitated with a platinum spatula in such a way that the spore was torn off. The resulting liquid filtered by sterilized gauze was the spore suspension.
(§7) 3-5-1 A Petri dish measured 90-100 mm in diameter and 20 mm in height.
(§8) 3-5-2 Agar liquid (which has no nutrients) of 2 % sterilized by steam was dropped onto the Petri dish sterilized by dry heat, and then was solidified.
(§9) 3-5-3 Three mm diameter sterilized glass bars or plastic nets made of polypropylene, etc. were placed to prevent the test specimens from touching with agar directly.
(§10) 3-6-1 The type of trees for wood specimens was beech. The cross section was of grain face, and the dimension was 20 mm wide 3 mm thick and 50 mm long.
(§11) 3-6-2 Wood specimens were supplied with nutrients in such a way that they were dipped into the potato-sap (the one in the section 3-2, but agar was not added) for 3 minutes.
(§12) 3-6-3 Nutrient-supplied wood specimens, after drying at 60 °C, were used for testing immediately. They were temporarily stored at 0 °C, but they were served to tests as soon as possible.
(§13) The test specimens were of two types, treated and untreated speciments. The treated specimens referred to the one treated with fungicide. The untreated specimens were of two types, the one really untreated and the other treated with solvent only.
(§14) 3-7-2-1 Nutrients-supplied wood specimens were dried at 60 ± 2 °C, and then their weights (W₀) were measured. Test specimens of 10-20 pieces were piled up in a one liter beaker in such a way that two specimens constant space apart from each other were alternately put on the other two specimens also constant space apart from each other. On the top of the two specimens, a weight was placed. Through the test specimens thus arranged, the fungicide solution was introduced. The level of the fungicide solution was one centimeter above the top specimens. The test specimens were dipped for three minutes after the fungicide solution introduction.
(§15) After finishing dipping, the test specimens were wiped softly, and then the weights (W₁) were measured immediately. As control experiment, the same procedure as the above was done using solvent without fungicide.
(§16) 3-7-2-2 The amounts of solution pick-up and fungicide pick-up were calculated with the following equations: The amount of solution absorption: RL = W₁ - W₀ [formula] The amount of fungicide absorption: Rc = RL × fungicide concentration [formula] 3-7-2-3 Wood specimens treated were placed without contacting each other, then were air-dried for two days, and then served as the treated test specimens. […]

[2] = test system: Aureobasidium pullulans (de Bary) Arnaud IFO 6353
Procedure: as §1, §2, §3, §4, §5, §6, §7, §8, §9, §10, §11, §12, §13, §14, §15, §16

[3] = test system: Gliocladium virens Miller, Gidden & Fosteb IFO 6355
Procedure: as §1, §2, §3, §4, §5, §6, §7, §8, §9, §10, §11, §12, §13, §14, §15, §16

[4] = test system: Penicillium funiculosum Thom IFO 6345
Procedure: as §1, §2, §3, §4, §5, §6, §7, §8, §9, §10, §11, §12, §13, §14, §15, §16

[5] = test system: Rhizopus javanicus Takeda IFO 6354
Procedure: as §1, §2, §3, §4, §5, §6, §7, §8, §9, §10, §11, §12, §13, §14, §15, §16

Structure (SMILES)	Average rating value, A₁ : Aspergillus Niger (IFO 6341) [1]	Average rating value, A₄ : Aureobasidium pullulans (IFO 6353) [2]	Average rating value, A₅ : Gliocladium virens (IFO 6355) [3]	Average rating value, A₂ : Penicillium funiculosum (IFO 6345) [4]	Average rating value, A₃ : Rhizopus javanicus (IFO 6354) [5]
CCCCCCCCCCNC(=O)C#CI [Example 2, N-(n-Decyl)-3-iodopropiolamide]	3.0	0.0	1.3	2.0	3.0
CCCCCNC(=O)C#CI [Example 7, N-(n-Pentyl)-3-iodopropiolamide]	0.2	0.0	1.8	0.2	3.0
CCC(C)NC(=O)C#CI (centres unmarked) [Example 5, N-(sec-Butyl)-3-iodopropiolamide]	0.0	0.0	1.3	0.0	3.0
CCCCCCCNC(=O)C#CI [Example 9, N-(n-Heptyl)-3-iodopropiolamide]	1.7	0.3	1.5	1.0	3.0
CC(C)(C)NC(=O)C#CI [Example 1, N-(tert-Butyl)-3-iodopropiolamide]	0.0	0.0	0.0	0.0	2.0
CCCCNC(=O)C#CI [Example 4, N-(n-Butyl)-3-iodopropiolamide]	0.0	0.0	1.0	0.0	0.0
CC(C)CNC(=O)C#CI [Example 6, N-Isobutyl-3-iodopropiolamide]	0.0	0.0	0.0	0.0	3.0
CCCCCCCCCNC(=O)C#CI [Example 11, N-(n-Nonyl)-3-iodopropiolamide]	3.0	1.7	2.8	1.8	3.0
CCCCCCCCNC(=O)C#CI [Example 10, N-(n-Octyl)-3-iodopropiolamide]	2.7	0.0	2.2	0.3	3.0
CCCCCCNC(=O)C#CI [Example 8, N-(n-Hexyl)-3-iodopropiolamide]	0.3	0.0	0.2	0.0	3.0
